Like-named read-outs stand apart in the source and are kept apart here.
Assays:
AsPC-1 (K-Ras G12D) [1] = test: Potency assay: pERK; format: cell-based; settings: Homo sapiens
AsPC-1 (K-Ras G12D) [2] = test: CellTiter-Glo cell viability assay; format: cell-based; settings: Homo sapiens, ASPC1, 120 h
Protocol: Determination of Cell Viability in RAS Mutant Cancer Cell Lines
Protocol: CellTiter-Glo® Cell Viability Assay
Note—The following protocol describes a procedure for monitoring cell viability of K-Ras mutant cancer cell lines in response to a compound of the invention. Other RAS isoforms may be employed, though the number of cells to be seeded will vary based on cell line used.
Test compounds (132.5 nL) were directly dispensed into the assay plates containing cells. […] On day 5, assay plates and their contents were equilibrated to room temperature for approximately 30 minutes. […] Luminescence was measured using the PerkinElmer Enspire. Data were normalized by the following: (Sample signal/Avg. DMSO)*100. The data were fit using a four-parameter logistic fit.

KRAS G12D = KRAS G12D (Homo sapiens, UniProt P01116+P62937, G12D); test: Ras-Raf disruption / FRET / MOA assay (BRAF RBD); format: biochemical; settings: KRAS G12D FRET data IC50, Ras-Raf disruption, with Cyclophilin A
Chain of KRAS G12D (P01116 1-169 isoform P01116-2 G12D limits assumed): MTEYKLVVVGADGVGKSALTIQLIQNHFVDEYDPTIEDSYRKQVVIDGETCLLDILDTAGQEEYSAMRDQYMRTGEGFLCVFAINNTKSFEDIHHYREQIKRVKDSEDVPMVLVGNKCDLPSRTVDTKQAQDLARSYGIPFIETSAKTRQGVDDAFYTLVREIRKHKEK
Chain of KRAS G12D (P62937 whole entry): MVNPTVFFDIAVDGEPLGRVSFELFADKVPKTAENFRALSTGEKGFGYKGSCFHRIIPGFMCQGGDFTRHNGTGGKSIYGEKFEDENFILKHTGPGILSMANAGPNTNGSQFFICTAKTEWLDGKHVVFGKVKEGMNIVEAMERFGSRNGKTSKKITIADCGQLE
In short: (§1)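 Compound-induced Ras–Cyclophilin A ternary complex disrupting BRAF RBD binding, read as IC50 from reduced TR-FRET ratio relative to DMSO. Final: Ras-GMPPNP 12.5 nM, BRAF RBD 50 nM, Cyclophilin A 25 μM, top compound 30 μM (3-fold, 10 points); 3 h at 25 °C, then 1.5 h with detection antibodies.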

KRAS G12S = KRAS G12S (Homo sapiens, UniProt P01116+P62937, G12S); test: Ras-Raf disruption / FRET / MOA assay (BRAF RBD); format: biochemical; settings: KRAS G12S FRET data IC50, Ras-Raf disruption, with Cyclophilin A
Chain of KRAS G12S (P01116 1-169 isoform P01116-2 G12S limits assumed): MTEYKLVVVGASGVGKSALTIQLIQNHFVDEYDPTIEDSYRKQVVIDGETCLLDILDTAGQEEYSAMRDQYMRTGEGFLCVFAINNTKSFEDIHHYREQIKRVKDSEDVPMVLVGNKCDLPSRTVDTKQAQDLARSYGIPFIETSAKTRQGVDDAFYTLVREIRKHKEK
Chain of KRAS G12S (P62937 whole entry): as the sequence (P62937 whole entry) above
In short: as §1

KRAS G12V = KRAS G12V (Homo sapiens, UniProt P01116+P62937, G12V); test: Ras-Raf disruption / FRET / MOA assay (BRAF RBD); format: biochemical; settings: KRAS G12V FRET data IC50, Ras-Raf disruption, with Cyclophilin A
Chain of KRAS G12V (P01116 1-169 isoform P01116-2 G12V limits assumed): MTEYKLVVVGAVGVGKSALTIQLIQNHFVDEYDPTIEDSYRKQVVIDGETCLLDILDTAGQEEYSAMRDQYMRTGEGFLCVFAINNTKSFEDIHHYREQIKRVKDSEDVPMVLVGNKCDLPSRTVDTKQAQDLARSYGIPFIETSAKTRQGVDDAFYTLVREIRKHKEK
Chain of KRAS G12V (P62937 whole entry): as the sequence (P62937 whole entry) above
In short: as §1

KRAS G13C = KRAS G13C (Homo sapiens, UniProt P01116+P62937, G13C); test: Ras-Raf disruption / FRET / MOA assay (BRAF RBD); format: biochemical; settings: KRAS G13C FRET data IC50, Ras-Raf disruption, with Cyclophilin A
Chain of KRAS G13C (P01116 1-169 isoform P01116-2 G13C limits assumed): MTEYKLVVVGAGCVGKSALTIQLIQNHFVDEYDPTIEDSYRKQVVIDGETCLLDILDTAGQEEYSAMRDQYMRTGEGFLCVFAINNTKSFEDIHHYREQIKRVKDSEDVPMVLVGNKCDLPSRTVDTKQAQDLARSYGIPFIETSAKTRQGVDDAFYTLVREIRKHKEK
Chain of KRAS G13C (P62937 whole entry): as the sequence (P62937 whole entry) above
In short: as §1

KRAS G13D = KRAS G13D (Homo sapiens, UniProt P01116+P62937, G13D); test: Ras-Raf disruption / FRET / MOA assay (BRAF RBD); format: biochemical; settings: KRAS G13D FRET data IC50, Ras-Raf disruption, with Cyclophilin A
Chain of KRAS G13D (P01116 1-169 isoform P01116-2 G13D limits assumed): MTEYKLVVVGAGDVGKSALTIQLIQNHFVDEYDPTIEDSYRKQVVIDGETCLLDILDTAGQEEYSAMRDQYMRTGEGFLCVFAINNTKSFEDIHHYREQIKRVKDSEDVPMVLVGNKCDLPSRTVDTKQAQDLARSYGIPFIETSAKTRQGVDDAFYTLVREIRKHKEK
Chain of KRAS G13D (P62937 whole entry): as the sequence (P62937 whole entry) above
In short: as §1

KRAS WT = KRAS WT (Homo sapiens, UniProt P01116+P62937); test: Ras-Raf disruption / FRET / MOA assay (BRAF RBD); format: biochemical; settings: KRAS WT FRET data IC50, Ras-Raf disruption, with Cyclophilin A
Chain of KRAS WT (P01116 1-169 isoform P01116-2 limits assumed): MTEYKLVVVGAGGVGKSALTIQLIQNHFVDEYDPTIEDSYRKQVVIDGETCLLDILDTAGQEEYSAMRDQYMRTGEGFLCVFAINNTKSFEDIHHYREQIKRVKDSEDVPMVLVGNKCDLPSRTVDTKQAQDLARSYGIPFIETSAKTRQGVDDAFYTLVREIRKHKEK
Chain of KRAS WT (P62937 whole entry): as the sequence (P62937 whole entry) above
In short: as §1

NRAS G12C = NRAS G12C (Homo sapiens, UniProt P01111+P62937, G12C); test: Ras-Raf disruption / FRET / MOA assay (BRAF RBD); format: biochemical; settings: NRAS G12C FRET data IC50, NRAS G12C
Chain of NRAS G12C (P01111 whole entry G12C): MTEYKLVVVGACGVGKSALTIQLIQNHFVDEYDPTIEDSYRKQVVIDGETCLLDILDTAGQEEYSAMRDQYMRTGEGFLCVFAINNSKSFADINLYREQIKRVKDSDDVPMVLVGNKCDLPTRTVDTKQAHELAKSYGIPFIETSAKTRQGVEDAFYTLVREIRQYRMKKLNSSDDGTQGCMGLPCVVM
Chain of NRAS G12C (P62937 whole entry): as the sequence (P62937 whole entry) above
In short: as §1

KRAS G12C = KRAS G12C (Homo sapiens, UniProt P01116+P62937, G12C); test: Ras-Raf disruption / FRET / MOA assay (BRAF RBD); format: biochemical; settings: KRAS G12C FRET data IC50, Ras-Raf disruption, with Cyclophilin A
Chain of KRAS G12C (P01116 1-169 isoform P01116-2 G12C limits assumed): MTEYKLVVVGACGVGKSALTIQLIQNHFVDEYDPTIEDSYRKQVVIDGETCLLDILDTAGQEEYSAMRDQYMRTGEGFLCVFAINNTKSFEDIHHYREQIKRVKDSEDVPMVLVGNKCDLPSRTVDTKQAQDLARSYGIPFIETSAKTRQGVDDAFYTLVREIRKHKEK
Chain of KRAS G12C (P62937 whole entry): as the sequence (P62937 whole entry) above
In short: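 TR-FRET read-out after 1.5 h with anti-His Eu-W1024 (10 nM) and anti-GST APC (50 nM), following 3 h at 25 °C of compound (top 30 μM, 3-fold, 10 points) with 25 μM Cyclophilin A, 12.5 nM GMPPNP-loaded K-Ras G12C and 50 nM BRAF RBD; IC50 reported.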

[3] = ASPC1, AsPC-1 KRAS G12D, read-out: pERK EC50
[4] = K-Ras G12D, 5-day treatment, read-out: AsPC-1 Cell Viability assay data IC50
[5] = read-out: AsPC-1 Cell Viability assay data IC50, K-Ras G12D, 5-day treatment

| Structure (SMILES) | EC50 (AsPC-1 (K-Ras G12D) [1]; [3]) [nM] | IC50 (AsPC-1 (K-Ras G12D) [2]; [4]) [nM] | EC50 (AsPC-1 (K-Ras G12D) [1]; ASPC1, read-out: pERK EC50) [nM] | IC50 (AsPC-1 (K-Ras G12D) [2]; [5]) [nM] | IC50 (KRAS G12D) [nM] | IC50 (KRAS G12S) [nM] | IC50 (KRAS G12V) [nM] | IC50 (KRAS G13C) [nM] | IC50 (KRAS G13D) [nM] | IC50 (KRAS WT) [nM] | IC50 (NRAS G12C) [nM] | IC50 (KRAS G12C) [nM] |
| --- | --- | --- | --- | --- | --- | --- | --- | --- | --- | --- | --- | --- |
| CCn1c(-c2cccnc2[C@H](C)OC)c2c3cc(ccc31)-c1cc(O)cc(c1)C[C@H](NC(=O)[C@@H](C(C)C)N(C)C(=O)[C@@]1(C)CCCN1C(=O)[C@@H]1CN1)C(=O)N1CCC[C@H](N1)C(=O)OCC(C)(C)C2 [Example 242] | < 5000 | 1000 to 10000 | – | – | – | – | – | – | – | – | – | – |
| CCn1c(-c2cnccc2COC)c2c3cc(ccc31)-c1cc(O)cc(c1)C[C@H](NC(=O)[C@H](C(C)C)N(C)C(=O)CN(C)C(=O)[C@@H]1N[C@@H]1C)C(=O)N1CCC[C@H](N1)C(=O)OCC(C)(C)C2 [Example 105] | – | – | < 5000 | 1000 to 10000 | – | – | – | – | – | – | – | – |
| CCn1c(-c2cccnc2[C@H](C)OC)c2c3cc(ccc31)-c1cc(O)cc(c1)C[C@H](NC(=O)[C@H](C(C)C)N(C)C(=O)CNC(=O)[C@@H]1CN1)C(=O)N1CCC[C@H](N1)C(=O)OCC(C)(C)C2 [Example 147] | – | – | < 5000 | 1000 to 10000 | 100 to 1000 | 10 to 100 | 10 to 100 | 10 to 100 | 100 to 1000 | 10 to 100 | 10 to 100 | 10 to 100 |
| CCn1c(-c2cccnc2[C@H](C)OC)c2c3cc(ccc31)-c1cc(O)cc(c1)C[C@H](NC(=O)[C@H](C(C)C)N(C)C(=O)[C@H]1CCCN1C(=O)[C@@H]1CN1)C(=O)N1CCC[C@H](N1)C(=O)OCC(C)(C)C2 [Example 151] | – | – | < 5000 | 1000 to 10000 | 100 to 1000 | 100 to 1000 | 10 to 100 | 100 to 1000 | 100 to 1000 | 100 to 1000 | < 10 | < 10 |
| CCn1c(-c2cnccc2COC)c2c3cc(ccc31)-c1cc(O)cc(c1)C[C@H](NC(=O)[C@H](C(C)C)N(C)C(=O)CN(C)C(=O)[C@H]1N[C@H]1C(=O)OC)C(=O)N1CCC[C@H](N1)C(=O)OCC(C)(C)C2 [Example 51] | – | – | < 5000 | > 10000 | – | – | – | – | – | – | – | – |
| CCn1c(-c2cccnc2[C@H](C)OC)c2c3cc(ccc31)-c1cc(O)cc(c1)C[C@H](NC(=O)[C@H](C(C)C)N(C)C(=O)[C@@H](C)N(C)C(=O)[C@H]1CN1)C(=O)N1CCC[C@H](N1)C(=O)OCC(C)(C)C2 [Example 114] | – | – | < 5000 | 1000 to 10000 | 1000 to 10000 | 1000 to 10000 | 1000 to 10000 | 100 to 1000 | 1000 to 10000 | 1000 to 10000 | 10 to 100 | 10 to 100 |
| CCn1c(-c2cccnc2[C@H](C)OC)c2c3cc(ccc31)-c1cc(O)cc(c1)C[C@H](NC(=O)[C@H](C(C)C)N(C)C(=O)[C@]13C[C@H]1CCN3C(=O)[C@H]1CN1)C(=O)N1CCC[C@H](N1)C(=O)OCC(C)(C)C2 [Example 244] | < 5000 | 1000 to 10000 | – | – | – | – | – | – | – | – | – | – |
| CCn1c(-c2cccnc2[C@H](C)OC)c2c3cc(ccc31)-c1cc(O)cc(c1)C[C@H](NC(=O)[C@@H](C(C)C)N(C)C(=O)[C@@]1(C)CCCN1C(=O)[C@H]1CN1)C(=O)N1CCC[C@H](N1)C(=O)OCC(C)(C)C2 [Example 240] | < 5000 | 1000 to 10000 | – | – | – | – | – | – | – | – | – | – |
| CCn1c(-c2cccnc2[C@H](C)OC)c2c3cc(ccc31)-c1cc(O)cc(c1)C[C@H](NC(=O)[C@H](C(C)C)N(C)C(=O)[C@H]1CCCN1C(=O)[C@H]1CN1)C(=O)N1CCC[C@H](N1)C(=O)OCC(C)(C)C2 [Example 152] | – | – | < 5000 | 1000 to 10000 | 100 to 1000 | 100 to 1000 | 100 to 1000 | 10 to 100 | 100 to 1000 | 100 to 1000 | 10 to 100 | 10 to 100 |
| CCn1c(-c2cnccc2COC)c2c3cc(ccc31)-c1cc(O)cc(c1)C[C@H](NC(=O)[C@H](C(C)C)N(C)C(=O)CN(C)C(=O)[C@H]1N[C@H]1c1ccccc1)C(=O)N1CCC[C@H](N1)C(=O)OCC(C)(C)C2 [Example 116] | – | – | – | > 10000 | – | – | – | – | – | – | – | – |
| CCn1c(-c2cccnc2[C@H](C)OC)c2c3cc(ccc31)-c1cc(O)cc(c1)C[C@H](NC(=O)[C@H](C(C)C)N(C)C(=O)CN(C)C(=O)[C@H]1N[C@@H]1C1CC1)C(=O)N1CCC[C@H](N1)C(=O)OCC(C)(C)C2 [Example 135] | – | – | – | 100 to 1000 | 10 to 100 | < 10 | 10 to 100 | < 10 | 10 to 100 | 10 to 100 | < 10 | < 10 |
| CCn1c(-c2cccnc2[C@H](C)OC)c2c3cc(ccc31)-c1cc(O)cc(c1)C[C@H](NC(=O)[C@H](C(C)C)N(C)C(=O)CN(C)C(=O)[C@H]1CN1CCO)C(=O)N1CCC[C@H](N1)C(=O)OCC(C)(C)C2 (stereo partly shown) [Example 161] | – | – | < 5000 | 1000 to 10000 | 100 to 1000 | 10 to 100 | 10 to 100 | 10 to 100 | 100 to 1000 | 10 to 100 | < 10 | < 10 |
| CCn1c(-c2cnccc2COC)c2c3cc(ccc31)-c1cc(O)cc(c1)C[C@H](NC(=O)[C@H](C(C)C)N(C)C(=O)CN(C)C(=O)[C@@H]1N[C@@H]1c1ccccc1)C(=O)N1CCC[C@H](N1)C(=O)OCC(C)(C)C2 [Example 110] | – | – | < 5000 | 1000 to 10000 | – | – | – | – | – | – | – | – |
| CCn1c(-c2cccnc2[C@H](C)OC)c2c3cc(ccc31)-c1cc(O)cc(c1)C[C@H](NC(=O)[C@H](C(C)C)N(C)C(=O)CN(C)C(=O)[C@@H]1CN1CCO)C(=O)N1CCC[C@H](N1)C(=O)OCC(C)(C)C2 (stereo partly shown) [Example 162] | – | – | < 5000 | 1000 to 10000 | 100 to 1000 | 10 to 100 | 10 to 100 | 10 to 100 | 10 to 100 | 10 to 100 | < 10 | < 10 |
| CCn1c(-c2cnccc2COC)c2c3cc(ccc31)-c1cc(O)cc(c1)C[C@H](NC(=O)[C@H](C(C)C)N(C)C(=O)CN(C)C(=O)[C@H]1N[C@H]1C1CC1)C(=O)N1CCC[C@H](N1)C(=O)OCC(C)(C)C2 [Example 104] | – | – | < 5000 | 1000 to 10000 | – | – | – | – | – | – | – | – |
| CCn1c(-c2cccnc2[C@H](C)OC)c2c3cc(ccc31)-c1cc(O)cc(c1)C[C@H](NC(=O)[C@H](C(C)C)N(C)C(=O)[C@H]1CC[C@@H](C)N1C(=O)[C@@H]1CN1)C(=O)N1CCC[C@H](N1)C(=O)OCC(C)(C)C2 [Example 153] | – | – | < 5000 | 1000 to 10000 | 100 to 1000 | 100 to 1000 | 100 to 1000 | 100 to 1000 | 100 to 1000 | 100 to 1000 | 10 to 100 | 10 to 100 |
| CCn1c(-c2cnccc2COC)c2c3cc(ccc31)-c1cc(O)cc(c1)C[C@H](NC(=O)[C@H](C(C)C)N(C)C(=O)CN(C)C(=O)C1CN1)C(=O)N1CCC[C@H](N1)C(=O)OCC(C)(C)C2 (stereo partly shown) [Example 33] | – | – | < 5000 | – | – | – | – | – | – | – | – | 10 to 100 |
| CCn1c(-c2cccnc2[C@H](C)OC)c2c3cc(ccc31)-c1cc(O)cc(c1)C[C@H](NC(=O)[C@H](C(C)C)N(C)C(=O)CNC(=O)[C@H]1CN1)C(=O)N1CCC[C@H](N1)C(=O)OCC(C)(C)C2 [Example 140] | – | – | < 5000 | 1000 to 10000 | 10 to 100 | 10 to 100 | 10 to 100 | < 10 | 10 to 100 | 10 to 100 | < 10 | < 10 |
